What was measured:
[1] = MTMD (Maximum Tolerated Multiple Dose) determination, iv weekly x 3; format: in vivo; details: mice; iv/Q7d × 3
Text: (§1) Female CD-1 or Athymic Nude-Fox1 nu/nu mice (Envigo) were utilized for all experiments. […] Animals were acclimated for five days prior to being individually tattoo-identified. Animal protocols were reviewed and approved according to the regional Institutional Animal Care and Use Committees.
(§2) Mice were randomly allocated into experimental groups and intravenously administered, once for the MTD (Maximum Tolerated Dose) determination or one administration a week during three consecutive weeks, for the MTMD (Maximum Tolerated Multiple Dose) determination study. The animals were administered with white formulation or with compound dissolved in the experimental formulation at different concentrations. The volume administered was always […]. Once administered, animals were monitored for clinical signs of systemic toxicity, changes in body weight and mortality up to 14 days after the administration.

B16 melanoma = details: U.S. Pat. No. 5,149,804; cited from earlier work
Lewis lung carcinoma = details: U.S. Pat. No. 5,149,804; cited from earlier work
P388 lymphoma = details: U.S. Pat. No. 5,149,804; cited from earlier work
[2] = tested on: A549 cells (lung carcinoma, NSCLC); assay: cells; details: Homo sapiens, A549, 72 h
Outline: (§3)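 Cells seeded at 5000/well, attached 18 h, then exposed 72 h to ten 2/5 serial dilutions (10 to 0.003 μg/mL; 1% DMSO final) in triplicate; time-zero plate fixed. SRB staining after glutaraldehyde fixation; growth effects by NCI algorithm, four-parameter logistic fit.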

[3] = tested on: HT29 cells (colorectal adenocarcinoma); assay: cells; details: Homo sapiens, HT-29, 72 h
Outline: as §3

[4] = tested on: PSN1 cells (pancreas adenocarcinoma); assay: cells; details: Homo sapiens, PSN1, 72 h
Outline: as §3

[5] = tested on: MDA-MB-231 cells (breast adenocarcinoma); assay: cells; details: Homo sapiens, MDA-MB-231, 72 h
Outline: as §3

[6] = MTD (Maximum Tolerated Dose) determination, single iv administration; format: in vivo; details: female, mouse, in vivo; mice; iv/SD (single dose); monitored up to 14 days
Text: as §1, §2

Structure (SMILES)	MTMD [1]	protection of mice in vivo (B16 melanoma)	protection of mice in vivo (Lewis lung carcinoma)	protection of mice in vivo (P388 lymphoma)	GI50 [2]	CC50 ([2]; read-out: LC50)	IC (total growth inhibition) ([2]; read-out: TGI)	GI50 [3]	CC50 ([3]; read-out: LC50)	IC (total growth inhibition) ([3]; read-out: TGI)	GI50 [4]	CC50 ([4]; read-out: LC50)	IC (total growth inhibition) ([4]; read-out: TGI)	GI50 [5]	CC50 ([5]; read-out: LC50)	IC (total growth inhibition) ([5]; read-out: TGI)	MTD at 14 days [6]
COc1c(C)cc2c(c1O)[C@@H]1[C@@H]3[C@@H]4SC[C@]5(NCCc6c5[nH]c5ccccc65)C(=O)OC[C@@H](c5c6c(c(C)c(OC(C)=O)c54)OCO6)N3[C@@H](O)[C@H](C2)N1C [ET-736, Ecteinascidin 736]	0.5 mg/kg	protects mice in vivo at very low concentrations	protects mice in vivo at very low concentrations	protects mice in vivo at very low concentrations													
COc1ccc2[nH]c3c(c2c1)C[C@@H](CO)N[C@]31CS[C@@H]2c3c(OC(C)=O)c(C)c4c(c3[C@H](COC1=O)N1[C@@H]2[C@H]2c3c(cc(C)c(OC)c3O)C[C@@H]([C@@H]1O)N2C)OCO4 [Compound 19-S]	0.75 mg/kg				3.07 nM	> 123 nM	0.00331 µM	1.35 nM	> 123 nM	0.0016 µM	2.95 nM	> 123 nM	0.00319 µM	1.96 nM	11 nM	0.00331 µM	0.5 mg/kg

— US12384800B2, “Antitumoral compounds” (priority 2017, dated 2025)
